Reference: patent US20100173943A1, “INSECTICIDAL COMPOSITIONS WITH IMPROVED ACTION” (BAYER CROPSCIENCE AG, priority 2007, published 2010)

Key:
[1] = tested on: cotton aphid (Aphis gossypii); test: Aphis gossypii test (APHIGO spray treatment); type: in vivo; settings: cotton leaves sprayed, 6 days; for pest or weed control at 20 ppm / pest or weed control at 100 ppm: Aphis gossypii, 144 h, read-out: Kill in % after 6 days a.i.; for pest or weed control at 20 ppm: 20 ppm a.i. alone; for pest or weed control at 100 ppm: 100 ppm a.i. alone
Procedure, shortened: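 Cotton leaves heavily infested with aphids sprayed with active ingredient formulated in DMF/alkylaryl polyglycol ether emulsifier and diluted in water to the test concentration, with ammonium salts and/or penetrants at 1000 ppm each where required. Kill rate (%) scored after the chosen period.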

[2] = tested on: green peach aphid (Myzus persicae); test: Myzus persicae test (MYZUPE); type: in vivo; settings: pepper plants sprayed, 6 days; for pest or weed control at 20 ppm: 20 ppm a.i. alone
Procedure, shortened: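 Compound formulated in DMF with alkylaryl polyglycol ether emulsifier, diluted in emulsifier-containing water; ammonium salts and/or penetrants added at 1000 ppm each where required. Heavily infested pepper plants (Capsicum annuum) sprayed at desired concentration. Kill rate (%) scored after desired time; 100% = all aphids dead.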

[3] = 20 ppm a.i. + AMS and RME 1000 ppm each
[4] = 20 ppm a.i. + ammonium sulphate 1000 ppm
[5] = 20 ppm a.i. + rapeseed oil methyl ester 1000 ppm
[6] = 100 ppm a.i. + AMS and RME 1000 ppm each
[7] = 100 ppm a.i. + ammonium sulphate 1000 ppm
[8] = 100 ppm a.i. + rapeseed oil methyl ester 1000 ppm
[9] = Myzus persicae, 144 h, read-out: Kill in % after 6 days a.i.

Row | Structure (SMILES) | Kill in % after 6 days +AMS + RME [1, 3] | Kill in % after 6 days +AMS [1, 4] | Kill in % after 6 days +RME [1, 5] | Kill in % after 6 days +AMS + RME [1, 6] | Kill in % after 6 days +AMS [1, 7] | Kill in % after 6 days +RME [1, 8] | pest or weed control at 20 ppm [1] | pest or weed control at 100 ppm [1] | Kill in % after 6 days +AMS + RME [2, 3] | Kill in % after 6 days +AMS [2, 4] | Kill in % after 6 days +RME [2, 5] | pest or weed control at 20 ppm [2, 9] | Kill in % after 6 days +AMS + RME ([2]; 4 ppm a.i. + AMS and RME 1000 ppm each) | Kill in % after 6 days +AMS ([2]; 4 ppm a.i. + ammonium sulphate 1000 ppm) | Kill in % after 6 days +RME ([2]; 4 ppm a.i. + rapeseed oil methyl ester 1000 ppm) | pest or weed control at 4 ppm ([2]; Myzus persicae, 144 h, 4 ppm a.i. alone, read-out: Kill in % after 6 days a.i.) | Kill in % after 6 days +AMS + RME [2, 6] | Kill in % after 6 days +AMS [2, 7] | Kill in % after 6 days +RME [2, 8] | pest or weed control at 100 ppm ([2]; Myzus persicae, 144 h, 100 ppm a.i. alone, read-out: Kill in % after 6 days a.i.)
1 | C#CCN(Cc1ccc(Cl)nc1)C1=CC(=O)CCC1 [Compound I-36, 3-{[(6-chloropyrid-3-yl)methyl](prop-2-yn-1-yl)amino}cyclohex-2-en-1-one] | 65% | 15% | 45% | 99% | 98% | 80% | 30% | 55% | 85% | 25% | 85% | 40% |  |  |  |  |  |  |  | 
2 | O=C1C=C(NCc2ccc(Cl)nc2)CCC1 [Compound I-37, 3-{[(6-chloropyrid-3-yl)methyl]amino}cyclohex-2-en-1-one] | 65% | 45% | 40% |  |  |  | 55% |  | 95% | 35% | 90% | 20% |  |  |  |  |  |  |  | 
3 | CN(Cc1ccc(Cl)nc1)C1=CC(=O)CCC1 [Compound I-38, 3-{[(6-chloropyrid-3-yl)methyl](methyl)amino}cyclohex-2-en-1-one] |  |  |  | 55% | 90% | 70% |  | 45% |  |  |  |  | 70% | 5% | 65% | 5% |  |  |  | 
4 | CCN(Cc1ccc(Cl)nc1)C1=CC(=O)CCC1 [Compound I-39, 3-{[(6-chloropyrid-3-yl)methyl](ethyl)amino}cyclohex-2-en-1-one] |  |  |  | 60% | 45% | 60% |  | 45% | 30% | 25% | 80% | 20% |  |  |  |  | 95% | 90% | 95% | 85%
